In this test the target is T1, KPC-2 (Klebsiella pneumoniae, UniProt Q9F663).
T1 construct: recombinant KPC-2 from pET28a (bla KPC-2 gene, NCBI NG_049253.1), expressed in E. coli BL21(DE3), Ni column purified
Kind of test: nitrocefin hydrolysis assay with purified KPC-2, absorbance at […] nm. Type of test: biochemical.

1 molecule from article PMC7363806, “Characterization of Corosolic Acid as a KPC-2 Inhibitor That Increases the Susceptibility of KPC-2-Positive Bacteria to Carbapenems” (Frontiers in Pharmacology, 2020) can be followed below.

pIC50: −log10 of the molar value.

In general, pIC50 refers to −log10 of the IC50, conventionally taken in molar units. Low readings indicate a high IC50, high ones a low IC50.

T1 sequence (Q9F663 25-293 limits assumed): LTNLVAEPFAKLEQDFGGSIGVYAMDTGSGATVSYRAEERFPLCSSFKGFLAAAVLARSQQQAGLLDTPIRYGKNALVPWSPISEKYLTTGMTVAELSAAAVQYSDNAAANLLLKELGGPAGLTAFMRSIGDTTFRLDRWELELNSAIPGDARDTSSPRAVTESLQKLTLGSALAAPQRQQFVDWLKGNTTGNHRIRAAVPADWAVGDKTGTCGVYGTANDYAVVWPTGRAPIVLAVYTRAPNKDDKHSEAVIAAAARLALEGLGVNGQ

In turn, `C[C@H]1[C@H](C)CC[C@]2(C(=O)O)CC[C@]3(C)C(=CC[C@@H]4[C@@]5(C)C[C@@H](O)[C@H](O)C(C)(C)[C@@H]5CC[C@]43C)[C@H]12` [CA, corosolic acid] had a negative logarithm of the IC50 (pIC50) of 5.30.
